Experimental data reported in patent publication US20120214802A1, “PYRROLIDINE COMPOUNDS WHICH INHIBIT BETA-SECRETASE ACTIVITY AND METHODS OF USE THEREOF” (priority 2009, published 2012).

Experiments:
memapsin 2 [1] = target: memapsin 2 (Homo sapiens, UniProt P56817); experiment: Inhibition of memapsin 2 beta-secretase activity (fluorogenic substrate FS-2); assay type: biochemical; settings: pH 4, 37° C., read-out: M2 Ki
How it was run: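 Memapsin 2 pre-incubated with compound for 20 min at pH 4, 37° C. Reaction started with fluorogenic substrate FS-2, […], derived from Swedish-variant APP beta-secretase site; inhibition measured from fluorescence.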

[2] = Hepatic intrinsic clearance in liver microsomes; assay type: in vitro ADME; settings: human, pH 7.4, human liver microsomes, in vitro clearance, read-out: HLM CL
Experimental: To 500 μl of 200 mM Na^+K^+phosphate buffer (pH 7.4), 100 μl of 1 mM EDTA solution was added followed by 100 μl of 2 mg protein/ml human liver microsomes. A 10 μl aliquot of test compound (20 mM stock in 50% acetonitrile) was diluted further with 40 μl of H2O (total assay volume […]. Assay mixture is incubated for 5 minutes at 37° C. The assay was initiated by addition of 250 μl of 4 mM NADPH solution. Incubation was continued at 37° C. Separate reaction mixtures were prepared for 0, 5, 10, 20, and 30 min durations. Individual reactions were halted by addition of 150 μl of 100% acetonitrile. Internal standard (10 μl of 100 ng/ml diazepam solution) was added. Concentration of the test compound in each separate reaction was measured using LC/MS/MS and a standard curve for the test compound according to standard procedures.
The hepatic intrinsic clearance in liver microsome was determined by the following procedure described by Davies and Morris (Davies, B. and Morris, T. (19930) Physiological parameters in laboratory animals and humans. Pharm Res. 10:1093-1095) detailing the relationship of in vitro clearance to physiological parameters in animals and human subjects.
The amount of compound remaining at each time point was expressed relative to the amount present in the initial (0 min) incubation. The relationship of relative amount vs. time was used to determine the half life of the compound in the microsome assay. The concentration independent rate constant, k1, was determined from rectangular hyperbolic fit:
where T is time (in minutes), from the relationship of relative amount vs. time. Alternatively, k1 was determined from a transform of the equation, where
Conversion to in vivo clearance was obtained from the relation (Davies and Morris, 1993):
where v=velocity of metabolism, [S] is the concentration of the compound, and volumes are expressed in mL.

memapsin 2 [3] = target: T1, memapsin 2 (Cricetulus griseus, UniProt G3IAK4); experiment: Cellular Aβ IC50 determination (Aβ40 sandwich ELISA); assay type: cell-based, Chinese hamster; settings: CHO cells over-expressing human APP695 with London and Swedish mutations, 24 h, read-out: M2 IC50
T1 construct: endogenous in cells; host or cells: Chinese hamster ovary cells over-expressing human APP695 (London + Swedish)
Experimental: The potency of compounds against memapsin 2 activity was determined in a cellular assay of Aβ production. […] Chinese hamster ovary cells that over-express human APP695 with the London and Swedish mutations were seeded in multi-well plates at 10% confluency. Compounds are dissolved in DMSO to concentrations near 1 mM, and diluted into culture media to a final concentration near 4 μM (final 0.4% DMSO). Compounds were diluted serially and applied to cells in multi-well plates 48 h after seeding. Incubation was continued in 5% CO2 at 37° C. for 24 h. Aliquots were removed and assayed for […] using a sandwich ELISA (BioSource International). Amount of Aβ40 over the range of concentration of compounds, relative to control incubations, were fit to a 4-parameter IC50 model.

CYP3A4 = target: T2, CYP3A4 (Homo sapiens, UniProt P08684); experiment: CYP3A4 inhibition (midazolam metabolism in human liver microsomes); assay type: in vitro ADME; settings: substrate midazolam, read-out: CYP 3A4Ki
T2 construct: host or cells: human liver microsomes
Experimental: To evaluate the drug-drug interaction potential for compounds, the potency to inhibit the major metabolic cytochrome CYP450 isoform 3A4 was assessed. The inhibition constant Ki was determined for inhibition of the metabolism of midazolam, a CYP3A4 substrate.
CYP3A4 Ki assays were performed following a recently published protocol with slight modifications (Di, L., Kerns, E. H., Li, S. Q., and Carter, G. T. (2007) Comparison of cytochrome P450 inhibition assays for drug discovery using human liver microsomes with LC-MS, rhCYP450 isozymes with fluorescence, and double cocktail with LC-MS. International Journal of Pharmaceutics 335: 1-11). The P450 inhibition assay was performed in 96-well plates at 37.2° C. in a shaking incubator. The compounds were diluted from 5 mM stocks in 100% DMSO and incubated at seven final concentrations from 0.078 to 10 μM (0.1% DMSO in each final incubation), with human liver microsomes (HLM) at a final protein concentration of 0.1 mg/mL protein and a substrate concentration ranging from 1.25 to 10 μM.
The assay was standardized for both phosphate buffer (100 mM, pH 7.4) and the NADPH regenerating system (MgCl2, 3.3 mM; G6P, 3.3 mM; G6PD, 1 U/ml; NADP+, 1.3 mM). Eight replicate control samples (0.1% DMSO, no compound) were prepared. Assays (200 μL) were set up by mixing HLM+substrate stock, 10 μL of test article in 2% DMSO, and the substrate before initiating the reaction with the addition of the regenerating system mixture. Reactions were quenched following incubation for 20, 30 and 40 minutes as described following.
After incubation for the specified time in a humidified shaking incubator, 20 μL of the reaction mixture was removed and the reactions were terminated by adding 200 μL of cold acetonitrile. Samples were centrifuged at 1000×g for 15 minutes in Solvinert filter plate. The receptor plate was dried via speed vacuum at 40° C. The sample was reconstituted with a reconstitution buffer composed of 10% acetonitrile, 10% DMSO, 80% H2O with an internal standard added at a concentration of 100 ng/ml. MS-Analysis was completed using LC-MS/MS. Formation of 1′-hydroxymidazolam was measured by monitoring a specific SRM (342>203) transition for the CYP3A4 metabolite.
Data were expressed as the relative quantity of midazolam metabolite relative to control incubations. Initial velocities were obtained by multiplying the relative quantity by the initial substrate concentration and dividing by the incubation duration. Data were transformed to inverse of inivital velocity and expressed vs. inhibitor concentration [I] for determination of Ki by the Dixon method (Dixon, M. (1953) Biochemical Journal 55: 170-171) using where intercept [I]=−Ki was determined at multiple substrate concentrations.

T2 sequence (P08684 whole entry): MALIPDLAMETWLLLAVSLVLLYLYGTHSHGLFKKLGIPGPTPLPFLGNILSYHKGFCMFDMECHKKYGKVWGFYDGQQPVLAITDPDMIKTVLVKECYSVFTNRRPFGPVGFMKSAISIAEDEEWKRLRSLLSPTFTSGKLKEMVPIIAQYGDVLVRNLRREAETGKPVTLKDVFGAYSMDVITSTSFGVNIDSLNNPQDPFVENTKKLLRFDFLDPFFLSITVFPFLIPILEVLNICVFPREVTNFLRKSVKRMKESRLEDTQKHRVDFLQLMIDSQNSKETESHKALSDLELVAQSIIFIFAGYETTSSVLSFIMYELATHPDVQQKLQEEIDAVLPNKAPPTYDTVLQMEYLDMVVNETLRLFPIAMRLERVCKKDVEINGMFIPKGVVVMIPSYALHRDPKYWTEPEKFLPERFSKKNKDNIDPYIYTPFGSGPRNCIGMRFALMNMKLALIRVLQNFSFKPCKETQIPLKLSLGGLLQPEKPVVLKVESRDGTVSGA
Chain of memapsin 2 (Homo sapiens, UniProt P56817) (P56817 46-501): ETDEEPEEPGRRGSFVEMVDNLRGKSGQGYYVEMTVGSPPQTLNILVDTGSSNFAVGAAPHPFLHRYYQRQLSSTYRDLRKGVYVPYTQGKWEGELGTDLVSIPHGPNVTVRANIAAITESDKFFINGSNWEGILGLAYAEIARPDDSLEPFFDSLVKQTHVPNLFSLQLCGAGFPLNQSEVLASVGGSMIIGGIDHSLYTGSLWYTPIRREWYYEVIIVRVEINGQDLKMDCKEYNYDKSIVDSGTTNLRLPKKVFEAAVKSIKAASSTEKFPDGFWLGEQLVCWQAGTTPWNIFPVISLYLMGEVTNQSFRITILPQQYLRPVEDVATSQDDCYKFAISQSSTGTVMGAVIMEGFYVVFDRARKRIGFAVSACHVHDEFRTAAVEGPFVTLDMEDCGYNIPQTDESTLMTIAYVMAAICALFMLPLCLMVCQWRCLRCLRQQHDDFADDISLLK
T1 sequence (G3IAK4 22-501): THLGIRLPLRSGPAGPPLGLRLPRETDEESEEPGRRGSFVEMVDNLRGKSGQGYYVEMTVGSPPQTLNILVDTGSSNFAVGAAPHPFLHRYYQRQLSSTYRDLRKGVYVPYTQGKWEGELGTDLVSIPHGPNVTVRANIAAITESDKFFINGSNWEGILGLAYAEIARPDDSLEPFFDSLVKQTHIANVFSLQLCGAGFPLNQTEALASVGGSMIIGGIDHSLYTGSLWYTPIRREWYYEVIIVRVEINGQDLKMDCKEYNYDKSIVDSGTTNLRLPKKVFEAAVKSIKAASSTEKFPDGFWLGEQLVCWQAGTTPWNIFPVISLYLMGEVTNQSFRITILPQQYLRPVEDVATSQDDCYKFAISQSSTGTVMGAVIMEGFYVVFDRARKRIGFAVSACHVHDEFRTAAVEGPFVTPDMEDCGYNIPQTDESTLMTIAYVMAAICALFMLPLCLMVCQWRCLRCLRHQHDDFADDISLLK

SMILES	Ki (memapsin 2 [1]) [nM]	CLint scaled at 200 μM [2] [mL/min/kg]	IC50 (memapsin 2 [3]) [nM]	Ki (CYP3A4) [nM]
Cc1csc(CN(C)C(=O)c2cc(C(=O)N[C@@H](Cc3ccccc3)[C@H](O)[C@H]3CCCN3)cc(-c3cnco3)c2)n1 [1-12, N1-((1R,2S)-1-hydroxy-3-phenyl-1-((R)-pyrrolidin-2-yl)propan-2-yl)-N3-methyl-N3-((4-methylthiazol-2-yl)methyl)-5-(oxazol-5-yl)isophthalamide]	< 250	< 400	> 1000	–
Cc1csc([C@H]2CCCN2C(=O)c2cc(C(=O)N[C@@H](Cc3ccccc3)[C@H](O)[C@H]3CCCN3)cc(-c3cnccn3)c2)n1 [1-20, N-((1R,2S)-1-hydroxy-3-phenyl-1-((R)-pyrrolidin-2-yl)propan-2-yl)-3-((R)-2-(4-methylthiazol-2-yl)pyrrolidine-1-carbonyl)-5-(pyrazin-2-yl)benzamide]	< 250	–	< 500	> 10000
Cc1coc([C@H]2CCCN2C(=O)c2cc(C(=O)N[C@@H](Cc3ccccc3)[C@H](O)[C@H]3CCCN3)cc(-n3cccc3)c2)n1 [1-26, N-((1R,2S)-1-hydroxy-3-phenyl-1-((R)-pyrrolidin-2-yl)propan-2-yl)-3-((R)-2-(4-methyloxazol-2-yl)pyrrolidine-1-carbonyl)-5-(1H-pyrrol-1-yl)benzamide]	< 250	–	–	5000 to 10000
Cc1coc([C@H]2CCCN2C(=O)c2cc(C(=O)N[C@@H](Cc3ccccc3)[C@H](O)[C@H]3CCCN3)cc(N(C)S(C)(=O)=O)c2)n1 [1-28, N-((1R,2S)-1-hydroxy-3-phenyl-1-((R)-pyrrolidin-2-yl)propan-2-yl)-3-(N-methylmethylsulfonamido)-5-((R)-2-(4-methyloxazol-2-yl)pyrrolidine-1-carbonyl)benzamide]	< 250	–	–	> 10000
Cc1csc([C@H]2CCCN2C(=O)c2cc(C(=O)N[C@@H](Cc3ccccc3)[C@H](O)[C@H]3CCCN3)cc(N3CCOCC3)c2)n1 [1-33, N-((1R,2S)-1-hydroxy-3-phenyl-1-((R)-pyrrolidin-2-yl)propan-2-yl)-3-((R)-2-(4-methylthiazol-2-yl)pyrrolidine-1-carbonyl)-5-morpholinobenzamide]	> 750	–	> 1000	5000 to 10000
COc1cc(C(=O)N[C@@H](Cc2ccccc2)[C@H](O)[C@H]2CCCN2)cc(C(=O)N2CCC[C@@H]2c2nc(C)cs2)c1 [1-34, N-((1R,2S)-1-hydroxy-3-phenyl-1-((R)-pyrrolidin-2-yl)propan-2-yl)-3-methoxy-5-((R)-2-(4-methylthiazol-2-yl)pyrrolidine-1-carbonyl)benzamide]	< 250	–	> 1000	5000 to 10000
Cc1csc([C@H]2CCCN2C(=O)c2cc(CF)cc(C(=O)N[C@@H](Cc3ccccc3)[C@H](O)[C@H]3C[C@@H](OCc4ccccc4)CN3)c2)n1 [1-36, N-((1R,2S)-1-((2R,4R)-4-(benzyloxy)pyrrolidin-2-yl)-1-hydroxy-3-phenylpropan-2-yl)-3-(fluoromethyl)-5-((R)-2-(4-methylthiazol-2-yl)pyrrolidine-1-carbonyl)benzamide]	< 250	–	< 500	> 10000
Cc1csc([C@H]2CCCN2C(=O)c2cc(C(=O)N[C@@H](Cc3ccccc3)[C@H](O)[C@H]3CCCN3)cc(N3CCCC3=O)c2)n1 [1-39, N-((1R,2S)-1-hydroxy-3-phenyl-1-((R)-pyrrolidin-2-yl)propan-2-yl)-3-((R)-2-(4-methylthiazol-2-yl)pyrrolidine-1-carbonyl)-5-(2-oxopyrrolidin-1-yl)benzamide]	< 250	< 400	< 500	–
Cc1csc([C@H]2CCCN2C(=O)c2cc(C(=O)N[C@@H](Cc3ccccc3)[C@H](O)[C@H]3C[C@@H](OCc4ccccc4)CN3)cc(-c3ncco3)c2)n1 [1-52, N-((1R,2S)-1-((2R,4R)-4-(benzyloxy)pyrrolidin-2-yl)-1-hydroxy-3-phenylpropan-2-yl)-3-((R)-2-(4-methylthiazol-2-yl)pyrrolidine-1-carbonyl)-5-(oxazol-2-yl)benzamide]	< 250	–	< 500	1000 to 5000
Cc1cc(C(=O)N[C@@H](Cc2ccccc2)[C@H](O)CNCc2cncc(C(C)C)c2)cc(C(=O)N2CCC[C@@H]2c2nc(C)cs2)c1 [2-8, N-((2S,3R)-3-hydroxy-4-((5-isopropylpyridin-3-yl)methylamino)-1-phenylbutan-2-yl)-3-methyl-5-((R)-2-(4-methylthiazol-2-yl)pyrrolidine-1-carbonyl)benzamide, reference compound]	< 250	–	< 500	< 1000
Cc1csc(CN(C(=O)c2cccc(C(=O)N[C@@H](Cc3ccccc3)[C@H](O)CNCc3cccc(C(F)(F)F)c3)c2)C2CC2)n1 [2-9, N1-cyclopropyl-N3-((2S,3R)-3-hydroxy-1-phenyl-4-(3-(trifluoromethyl)benzylamino)butan-2-yl)-N1-((4-methylthiazol-2-yl)methyl)isophthalamide, reference compound]	< 250	–	< 500	< 1000
Cc1csc([C@H]2CCCN2C(=O)c2cccc(C(=O)N[C@@H](Cc3ccccc3)[C@H](O)CNCc3cccc(C(C)(C)C)c3)c2)n1 [2-10, N-((2S,3R)-4-(3-tert-butylbenzylamino)-3-hydroxy-1-phenylbutan-2-yl)-3-((R)-2-(4-methylthiazol-2-yl)pyrrolidine-1-carbonyl)benzamide, reference compound]	< 250	–	< 500	< 1000
Cc1cc(C(=O)N[C@@H](Cc2ccccc2)[C@H](O)CNCc2cncc(C(C)(C)C)c2)cc(C(=O)N2CCC[C@@H]2c2nc(C)co2)c1 [2-11, N-((2S,3R)-4-((5-tert-butylpyridin-3-yl)methylamino)-3-hydroxy-1-phenylbutan-2-yl)-3-methyl-5-((R)-2-(4-methyloxazol-2-yl)pyrrolidine-1-carbonyl)benzamide, reference compound]	< 250	–	< 500	< 1000
